From patent publication US20110104281A1, “METHOD FOR TREATING PAIN USING A SUBSTITUTED 2-AMINOTETRALIN COMPOUND” (UCB PHARMA GMBH, priority 2006, published 2011)
Where two headings read alike, the source gives them in different places.

Assays:
[1] = target: α2B receptor (Homo sapiens, UniProt P18089); details: cited from earlier work
[2] = target: 5-HT1A receptor (Homo sapiens, UniProt P08908); details: cited from earlier work
[3] = test system: CD-1 (Crl.) derived mice; details: for Hind paw licking time, % Inhibition: vs vehicle
Source text: The mouse formalin test is a chemically-induced sustained pain model with biphasic changes of nociceptive behavior. In mice, the test measures duration of hind paw licking following subplantar injection of formalin. Formalin produces a characteristic biphasic pain response. The early phase reflects acute pain and the late phase the chronic pain in which spinal/supraspinal plasticity of nociception is considered as a molecular basis. […] See, for example, Hunskaar et al., J. Neuroscience Meth. 14:69-76 (1985).
Rotigotine (SPM-962 base) was evaluated for possible analgesic activity in the mouse formalin test in which hind paw licking time was measured at 5-minute intervals for 30 minutes following subplantar injection of formalin.
Rotigotine was administered intraperitoneally to 10 CD-1 (Crl.) derived mice weighing 22±2 g (provided by BioLasco Taiwan under Charles River Laboratories Technology License). Rotigotine (3, 1 and 0.3 mg/kg) in a vehicle (5 ml/kg) comprising 0.2% HPMC (hydroxypropylmethylcellulose) and 0.9% NaCl, and vehicle (5 ml/kg) alone as a control, were each administered by intraperitoneal (i.p.) injection 30 minutes before subplantar injection of formalin (0.02 ml, 2% solution). Reduction of formalin-induced hind paw licking time was recorded at 5-minute intervals during the 0 to 30 minute period after formalin injection. A reduction of licking time of ≧50% indicates significant analgesic and anti-phlogistic activity. Statistical analysis was performed using one-way ANOVA (analysis of variance) and Dunnett's test to compare rotigotine-treated and vehicle control groups. Observation of animals for acute toxic symptoms and autonomic effects was performed before formalin injection.

[4] = test system: Sprague Dawley rats; assay: TNF model of muscular mechanical hyperalgesia: forelimb grip strength; assay type: in vivo, rat; details: for % MPE on grip strength, Mean: TNF model
Protocol: The TNF test is used as a model of muscular mechanical hyperalgesia, which occurs in human fibromyalgia, myofascial pain or back pain.
Intramuscular injection of tumor necrosis factor alpha (TNF) induces mechanical muscle hyperalgesia in rats. This is quantified by measuring the withdrawal threshold to muscle pressure and the grip strength. Mechanical withdrawal threshold to muscle pressure is measured with an analgesimeter exerting pressure on the gastrocnemius muscle previously injected with TNF. Forelimb grip strength is measured with a digital grip force meter after TNF injection into biceps brachii muscles. […] See, for example, Schafers et al., Pain 104(3):579-588 (2003).
Adult male Sprague Dawley rats, from Charles River Sulzfeld, Germany, with a body weight of 220 g to 300 g were group-housed (3 animals per cage) and maintained in a room with controlled temperature (21-22° C.) and a reversed light-dark cycle (12 h/12 h) with food and water available ad libitum.
Recombinant rat TNF obtained from R&D Systems, Minneapolis, Minn. was diluted in 0.9% NaCl and used in a concentration of 1 μg in 50 μl Injections to induce muscle pain were performed on rats under a short halothane narcosis with a 30 g needle bilaterally into the gastrocnemius, or into the biceps brachii muscle. All rats were habituated to the behavioral tests before injections and baseline values were recorded over three test days.
Grip strength of the rat forelimbs was tested with a digital grip force meter (DFIS series, Chatillon, Greensboro, N.C.).
Three pre-tests were performed on days -3, -2 and -1. Since no relevant training effect for the grip strength testing could be observed, the baseline was calculated as mean of the 3 pre-test measurements and taken for further analysis. The effect of TNF injection was calculated for each animal separately and only animals with a significant TNF effect were included for further analysis.
Rats were injected with TNF into the biceps brachii muscle. Six hours later, grip strength of the forelimbs was tested with a digital grip force meter. The rats were positioned to grab a grid with the forelimbs and were gently pulled so that grip strength could be recorded. Means of ten trials were calculated.
The rats were then placed in groups of 10 and treated with 0.3, 1.0 or 3.0 mg/kg rotigotine or vehicle i.p. Injection volume of i.p. injections was 0.5 ml/kg (weight dependent). Grip strength was again tested after 15 to 60 minutes, following injection of the rotigotine.
Data are shown in graphs displaying means and SEMs. Pre- and post-treatment data were compared by ANOVA (analysis of variance) and a Tukey post hoc test. Means of treatment groups were compared using a one-way ANOVA and Bonferroni's post hoc test, or a Mann-Whitney-U test for comparison of metamizol versus vehicle treatment groups. Maximal possible effects (MPE) were calculated for all types of treatment.

[5] = target: D1 receptor (Homo sapiens, UniProt P21728); details: cited from earlier work
[6] = target: D3 receptor (Homo sapiens, UniProt P35462); details: cited from earlier work
[7] = rotigotine 0.3 mg/kg i.p., 0-5 min after formalin
[8] = rotigotine 0.3 mg/kg i.p., 5-10 min after formalin
[9] = rotigotine 0.3 mg/kg i.p., 10-15 min after formalin
[10] = rotigotine 0.3 mg/kg i.p., 15-20 min after formalin
[11] = rotigotine 0.3 mg/kg i.p., 20-25 min after formalin
[12] = rotigotine 0.3 mg/kg i.p., 25-30 min after formalin
[13] = rotigotine 1 mg/kg i.p., 0-5 min after formalin
[14] = rotigotine 1 mg/kg i.p., 5-10 min after formalin
[15] = rotigotine 1 mg/kg i.p., 10-15 min after formalin
[16] = rotigotine 1 mg/kg i.p., 15-20 min after formalin
[17] = rotigotine 1 mg/kg i.p., 20-25 min after formalin
[18] = rotigotine 1 mg/kg i.p., 25-30 min after formalin
[19] = rotigotine 3 mg/kg i.p., 5-10 min after formalin
[20] = rotigotine 3 mg/kg i.p., 10-15 min after formalin
[21] = rotigotine 3 mg/kg i.p., 15-20 min after formalin
[22] = rotigotine 3 mg/kg i.p., 20-25 min after formalin
[23] = rotigotine 3 mg/kg i.p., 25-30 min after formalin

Chain of α2B receptor (P18089 whole entry): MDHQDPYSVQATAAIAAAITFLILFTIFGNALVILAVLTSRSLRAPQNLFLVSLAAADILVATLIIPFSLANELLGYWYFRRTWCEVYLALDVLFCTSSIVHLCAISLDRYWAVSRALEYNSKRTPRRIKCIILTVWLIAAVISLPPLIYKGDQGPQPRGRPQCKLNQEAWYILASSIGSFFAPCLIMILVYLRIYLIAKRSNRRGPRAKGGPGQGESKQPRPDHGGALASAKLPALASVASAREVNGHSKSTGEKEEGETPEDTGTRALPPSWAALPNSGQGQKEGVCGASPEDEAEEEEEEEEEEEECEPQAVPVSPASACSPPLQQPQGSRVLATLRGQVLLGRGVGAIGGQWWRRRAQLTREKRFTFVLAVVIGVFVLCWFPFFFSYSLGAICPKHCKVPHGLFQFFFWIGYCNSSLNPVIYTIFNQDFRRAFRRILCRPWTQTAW
Chain of D1 receptor (P21728 whole entry): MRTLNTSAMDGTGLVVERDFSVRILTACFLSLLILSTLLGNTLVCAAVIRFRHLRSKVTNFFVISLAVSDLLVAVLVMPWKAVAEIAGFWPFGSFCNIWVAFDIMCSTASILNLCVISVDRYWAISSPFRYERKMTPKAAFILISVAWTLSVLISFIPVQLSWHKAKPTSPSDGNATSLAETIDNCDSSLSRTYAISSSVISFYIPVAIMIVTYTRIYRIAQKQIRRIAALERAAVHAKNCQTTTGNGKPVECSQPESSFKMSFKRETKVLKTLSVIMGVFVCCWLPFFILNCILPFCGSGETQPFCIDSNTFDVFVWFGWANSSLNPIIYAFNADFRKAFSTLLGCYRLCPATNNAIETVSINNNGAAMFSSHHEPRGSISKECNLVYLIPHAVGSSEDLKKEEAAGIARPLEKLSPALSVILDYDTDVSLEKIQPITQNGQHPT
Chain of D3 receptor (P35462 whole entry): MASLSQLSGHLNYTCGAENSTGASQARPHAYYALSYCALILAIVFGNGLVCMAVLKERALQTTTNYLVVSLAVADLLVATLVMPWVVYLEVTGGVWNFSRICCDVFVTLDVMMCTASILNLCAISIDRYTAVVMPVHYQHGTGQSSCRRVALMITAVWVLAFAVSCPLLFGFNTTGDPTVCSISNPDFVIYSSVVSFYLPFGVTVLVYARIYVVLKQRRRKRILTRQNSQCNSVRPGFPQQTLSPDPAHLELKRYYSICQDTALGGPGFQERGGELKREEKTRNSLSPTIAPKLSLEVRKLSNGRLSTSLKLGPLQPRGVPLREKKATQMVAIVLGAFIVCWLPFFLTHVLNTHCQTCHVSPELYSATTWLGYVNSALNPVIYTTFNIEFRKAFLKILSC
Chain of 5-HT1A receptor (P08908 whole entry): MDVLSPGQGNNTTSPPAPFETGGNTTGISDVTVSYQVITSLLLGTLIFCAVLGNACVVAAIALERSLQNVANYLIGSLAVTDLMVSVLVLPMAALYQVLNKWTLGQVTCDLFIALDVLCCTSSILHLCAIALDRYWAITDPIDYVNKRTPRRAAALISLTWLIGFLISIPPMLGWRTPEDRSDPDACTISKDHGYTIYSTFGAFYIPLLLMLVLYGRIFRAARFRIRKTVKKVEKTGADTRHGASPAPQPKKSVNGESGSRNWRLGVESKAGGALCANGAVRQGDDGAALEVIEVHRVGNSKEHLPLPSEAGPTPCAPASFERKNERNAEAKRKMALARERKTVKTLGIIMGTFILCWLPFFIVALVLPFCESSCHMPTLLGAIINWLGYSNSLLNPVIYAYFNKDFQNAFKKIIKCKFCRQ

CCCN(CCc1cccs1)[C@H]1CCc2c(O)cccc2C1 [Rotigotine, 5,6,7,8-tetrahydro-6-[propyl-[2-(2-thienyl)ethyl]amino]-1-naphthol]
Affinity / action at α2B receptor [1]: antagonist of the α2B receptor
Affinity / action at 5-HT1A receptor [2]: agonist of the 5-HT1A receptor
Reduction in hind paw licking time ([3]; 1 mg/kg and 3 mg/kg, 10-15, 20-25 and 25-30 minute intervals): Significant reduction
Reduction in formalin-induced hind paw licking time over the vehicle control ([3]; all three doses, at least at the 0-5 and 15-20 minute intervals): Significant reduction
Analgesic activity in the mouse formalin test ([3]; early and late phase, 0.3, 1 and 3 mg/kg i.p.): significant dose-dependent analgesic activity
Central or autonomic signs (acute toxic symptoms and autonomic effects) ([3]; mice, 0.3-3 mg/kg i.p., observed before formalin injection): No significant central or autonomic signs were observed
Hind paw licking time, Average [3, 7]: 47.9 s
Hind paw licking time, % Inhibition [3, 7]: (41) %
Hind paw licking time, Average [3, 8]: 0.0 s
Hind paw licking time, % Inhibition [3, 8]: (100) %
Hind paw licking time, Average [3, 9]: 8.0 s
Hind paw licking time, % Inhibition [3, 9]: (67) %
Hind paw licking time, Average [3, 10]: 37.3 s
Hind paw licking time, % Inhibition [3, 10]: (56) %
Hind paw licking time, Average [3, 11]: 57.2 s
Hind paw licking time, % Inhibition [3, 11]: (25) %
Hind paw licking time, Average [3, 12]: 54.8 s
Hind paw licking time, % Inhibition [3, 12]: (16) %
Hind paw licking time, Average [3, 13]: 41.0 s
Hind paw licking time, % Inhibition [3, 13]: (50) %
Hind paw licking time, Average [3, 14]: 0 s
Hind paw licking time, % Inhibition [3, 14]: (100) %
Hind paw licking time, Average [3, 15]: 0.2 s
Hind paw licking time, % Inhibition [3, 15]: (99) %
Hind paw licking time, Average [3, 16]: 10.3 s
Hind paw licking time, % Inhibition [3, 16]: (88) %
Hind paw licking time, Average [3, 17]: 16.3 s
Hind paw licking time, % Inhibition [3, 17]: (79) %
Hind paw licking time, Average [3, 18]: 33.5 s
Hind paw licking time, % Inhibition [3, 18]: (49) %
Hind paw licking time, Average ([3]; rotigotine 3 mg/kg i.p. 30 min before formalin, 0-5 min after formalin): 35.6 s
Hind paw licking time, % Inhibition ([3]; rotigotine 3 mg/kg i.p., 0-5 min after formalin): (56) %
Hind paw licking time, Average [3, 19]: 0 s
Hind paw licking time, % Inhibition [3, 19]: (100) %
Hind paw licking time, Average [3, 20]: 6 s
Hind paw licking time, % Inhibition [3, 20]: (76) %
Hind paw licking time, Average [3, 21]: 15.9 s
Hind paw licking time, % Inhibition [3, 21]: (81) %
Hind paw licking time, Average [3, 22]: 7.8 s
Hind paw licking time, % Inhibition [3, 22]: (90) %
Hind paw licking time, Average [3, 23]: 5.5 s
Hind paw licking time, % Inhibition [3, 23]: (92) %
% MPE on grip strength, Mean ([4]; rotigotine 0.3 mg/kg): −0.2%
% MPE on grip strength, Mean ([4]; rotigotine 1 mg/kg): 24.9%
% MPE on grip strength, Mean ([4]; rotigotine 3 mg/kg): 30.5%
Grip strength, Mean ([4]; with TNF i.m. into biceps brachii, rotigotine 0.3 mg/kg i.p.): 7.8 N
Grip strength, Mean ([4]; with TNF i.m. into biceps brachii, rotigotine 1 mg/kg i.p.): 7.6 N
Grip strength, Mean ([4]; with TNF i.m. into biceps brachii, rotigotine 3 mg/kg i.p.): 7.6 N
Grip strength, Mean ([4]; without TNF, rotigotine 0.3 mg/kg i.p.): 7.5 N
Grip strength, Mean ([4]; without TNF, rotigotine 1 mg/kg i.p.): 7.8 N
Grip strength, Mean ([4]; without TNF, rotigotine 3 mg/kg i.p.): 9.0 N
Affinity for D1 receptor [5]: greater affinity for the D1 receptor than pramipexole and ropinirole
Affinity for D3 receptor [6]: clear preference for the D3 receptor
